From ChEMBL document CHEMBL5352429, “Designed symmetrical β-hairpin peptides for treating multidrug-resistant salmonella typhimurium infections” (Eur J Med Chem, 2022)
In brackets after ≈: the same amount, converted by molar mass. Activity calls are given as the source filed them. The rule behind the calls is not given here. Peptide text beside a SMILES is read from it.

How the values were obtained:
[1] = tested on: Cell membrane; assay: Induction of cytoplasmic membrane depolarization in Salmonella typhimurium DT104 assessed as increase in fluorescence intensity at 2 times of MIC incubated for 15 mins by DiSC3-5 dye based fluorescence method; format: subcellular; conditions: Salmonella enterica subsp. enterica serovar Typhimurium
[2] = tested on: Salmonella typhimurium; assay: Antibacterial activity against Salmonella typhimurium DT104 in the presence of NH4Cl by MH broth based assay; format: functional, Salmonella enterica subsp. enterica serovar Typhimurium; conditions: Salmonella enterica
[3] = tested on: Salmonella paratyphi; assay: Antibacterial activity against Salmonella paratyphi A CICC 21501 incubated overnight by standard microtiter dilution method; format: functional, Salmonella enterica subsp. enterica serovar Paratyphi A; conditions: Salmonella enterica
[4] = tested on: Salmonella typhimurium; assay: Antibacterial activity against multi-drug resistant Salmonella typhimurium DT104 assessed as inhibition of bacterial growth measured upto 120 mins by MH agar based serial dilution method; format: functional, organism-based; conditions: Salmonella enterica subsp. enterica serovar Typhimurium
[5] = tested on: RAW264.7; assay: Inhibition of LPS-stimulated IL-1beta production in mouse RAW264.7 cells at 1 to 128 ug/ml incubated for 24 hrs by ELISA analysis; format: functional, cell-based; conditions: dose 1-128 µg/ml
[6] = tested on: Salmonella typhimurium; assay: Antibacterial activity against Salmonella typhimurium DT104 in the presence of CaCl2 by MH broth based assay; format: functional, Salmonella enterica subsp. enterica serovar Typhimurium; conditions: Salmonella enterica
[7] = Antibacterial activity against Salmonella wandsworth CICC 21504 incubated overnight by standard microtiter dilution method; format: functional, Salmonella enterica subsp. enterica serovar Wandsworth; conditions: Salmonella enterica
[8] = Antibacterial activity against Salmonella dublin CICC 21497 incubated overnight by standard microtiter dilution method; format: functional, Salmonella enterica subsp. enterica serovar Dublin; conditions: Salmonella enterica
[9] = tested on: Salmonella enteritidis; assay: Antibacterial activity against Salmonella enteritidis CICC 21527 incubated overnight by standard microtiter dilution method; format: functional, Salmonella enterica subsp. enterica serovar Enteritidis; conditions: Salmonella enterica
[10] = tested on: Cell membrane; assay: Disruption of membrane integrity in Salmonella typhimurium DT104 assessed as increase in fluorescence intensity at 0.5 to 2 times of MIC incubated for 15 mins by PI staining based flow cytometric analysis; format: subcellular; conditions: Salmonella enterica subsp. enterica serovar Typhimurium
[11] = tested on: RAW264.7; assay: Inhibition of LPS-stimulated NO production in mouse RAW264.7 cells incubated for 24 hrs by Griess reagent based analysis; format: functional, cell-based; conditions: dose 1-128 µg/ml
[12] = tested on: Salmonella typhimurium; assay: Antibacterial activity against Salmonella typhimurium DT104 in the presence of FeCl3 by MH broth based assay; format: functional, Salmonella enterica subsp. enterica serovar Typhimurium; conditions: Salmonella enterica
[13] = tested on: Salmonella typhimurium; assay: Antibacterial activity against Salmonella typhimurium DT104 in the presence of KCl by MH broth based assay; format: functional, Salmonella enterica subsp. enterica serovar Typhimurium; conditions: Salmonella enterica
[14] = Cytotoxicity against mouse RAW264.7 cells infected with Salmonella typhimurium DT104 assessed as cell viability at 1 times of MIC measured at 180 min by MTT assay; format: toxicity, cell-based; conditions: RAW264.7 cells infected with Salmonella typhimurium DT104, read-out: Activity
[15] = tested on: RAW264.7; assay: Inhibition of LPS-stimulated IL-8 production in mouse RAW264.7 cells at 1 to 128 ug/ml incubated for 24 hrs by ELISA analysis; format: functional, cell-based; conditions: dose 1-128 µg/ml
[16] = tested on: Staphylococcus aureus; assay: Antibacterial activity against Staphylococcus aureus ATCC 29213 incubated overnight by standard microtiter dilution method; format: functional
[17] = tested on: Salmonella typhimurium; assay: Antibacterial activity against Salmonella typhimurium DT104 in the presence 50% inactivated mouse serum by MH broth based assay; format: functional, Salmonella enterica subsp. enterica serovar Typhimurium; conditions: Salmonella enterica
[18] = tested on: Salmonella typhimurium; assay: Antibacterial activity against Salmonella typhimurium DT104 in the presence of MgCl2 by MH broth based assay; format: functional, Salmonella enterica subsp. enterica serovar Typhimurium; conditions: Salmonella enterica
[19] = tested on: Salmonella typhimurium; assay: Antibacterial activity against Salmonella typhimurium DT104 infected in mouse RAW264.7 cells assessed as reduction in bacterial cells at 1 times of MIC measured for 180 mins by MH agar based serial dilution method; format: functional, organism-based; conditions: Salmonella enterica subsp. enterica serovar Typhimurium
[20] = tested on: Enterococcus faecalis; assay: Antibacterial activity against Enterococcus faecalis ATCC 29212 incubated overnight by standard microtiter dilution method; format: functional
[21] = tested on: Staphylococcus epidermidis; assay: Antibacterial activity against methicillin-resistant Staphylococcus epidermidis ATCC 12228 incubated overnight by standard microtiter dilution method; format: functional
[22] = tested on: Salmonella typhimurium; assay: Antibacterial activity against Salmonella typhimurium CICC 21913 incubated overnight by standard microtiter dilution method; format: functional, Salmonella enterica subsp. enterica serovar Typhimurium; conditions: Salmonella enterica
[23] = Antibacterial activity against Salmonella enterica subsp. enterica serovar Choleraesuis CICC 21493 incubated overnight by standard microtiter dilution method; format: functional
[24] = tested on: Erythrocyte; assay: Hemolytic activity in human Red blood cells assessed as hemolysis incubated for 1 hrs by absorbance based microplate reader analysis; format: toxicity, cell-based
[25] = Antibacterial activity against Salmonella paratyphi C CICC 21512 incubated overnight by standard microtiter dilution method; format: functional, Salmonella enterica subsp. enterica serovar Paratyphi C; conditions: Salmonella enterica
[26] = tested on: Salmonella enterica subsp. enterica serovar Paratyphi B; assay: Antibacterial activity against Salmonella paratyphi B CICC 21495 incubated overnight by standard microtiter dilution method; format: functional
[27] = tested on: Candida albicans; assay: Antifungal activity against Candida albicans ATCC 10231 incubated overnight by standard microtiter dilution method; format: functional
[28] = tested on: RAW264.7; assay: Inhibition of LPS-stimulated TNF-alpha production in mouse RAW264.7 cells at 1 to 128 ug/ml incubated for 24 hrs by ELISA analysis; format: functional, cell-based; conditions: dose 1-128 µg/ml
[29] = tested on: Salmonella typhimurium; assay: Antibacterial activity against Salmonella typhimurium DT104 ATCC 700408 incubated overnight by standard microtiter dilution method; format: functional, Salmonella enterica subsp. enterica serovar Typhimurium; conditions: Salmonella enterica
[30] = tested on: Salmonella typhimurium; assay: Antibacterial activity against Salmonella typhimurium DT104 in the presence 25% inactivated mouse serum by MH broth based assay; format: functional, Salmonella enterica subsp. enterica serovar Typhimurium; conditions: Salmonella enterica
[31] = tested on: Salmonella typhimurium; assay: Antibacterial activity against Salmonella typhimurium DT104 in the presence of NaCl by MH broth based assay; format: functional, Salmonella enterica subsp. enterica serovar Typhimurium; conditions: Salmonella enterica
[32] = tested on: Lipopolysaccharide (LPS); assay: Displacement of BODIPY-TR-cadaverine from Salmonella typhimurium LPS assessed as increase in fluorescence intensity by fluorescence spectrophotometric analysis; conditions: Salmonella enterica subsp. enterica serovar Typhimurium; dose 0.25-8 µg/ml
[33] = tested on: Staphylococcus aureus; assay: Antibacterial activity against methicillin-resistant Staphylococcus aureus ATCC 43300 incubated overnight by standard microtiter dilution method; format: functional
[34] = tested on: Salmonella typhimurium; assay: Antibacterial activity against Salmonella typhimurium CICC 21483 incubated overnight by standard microtiter dilution method; format: functional, Salmonella enterica subsp. enterica serovar Typhimurium; conditions: Salmonella enterica
[35] = Antibacterial activity against Salmonella enterica subsp. enterica serovar Choleraesuis ATCC 13312 incubated overnight by standard microtiter dilution method; format: functional
[36] = Hemolytic activity in human Red blood cells assessed as hemolysis at 128 ug/ml incubated for 1 hrs by absorbance based microplate reader analysis relative to control; format: toxicity, cell-based, Erythrocyte; conditions: red blood cells (erythrocytes), at 128 µg/mL, read-out: Activity
[37] = tested on: Salmonella typhimurium; assay: Antibacterial activity against multi-drug resistant Salmonella typhimurium DT104 assessed as inhibition of bacterial growth at 0.5 to 2 times of MIC by MH agar based serial dilution method; format: functional, organism-based; conditions: Salmonella enterica subsp. enterica serovar Typhimurium, time <= 120.0 min, TDE = time-dependent effect
[38] = tested on: Escherichia coli; assay: Antibacterial activity against Escherichia coli O157:H7 CICC 21530 incubated overnight by standard microtiter dilution method; format: functional
[39] = Antibacterial activity against Salmonella blockley CICC 21489 incubated overnight by standard microtiter dilution method; format: functional, Salmonella enterica subsp. enterica serovar Blockley; conditions: Salmonella enterica

SMILES: CC(C)C[C@H](NC(=O)[C@H](CCCCN)NC(=O)[C@H](CC(C)C)NC(=O)[C@H](CCCCN)NC(=O)[C@H](CS)NC(=O)CNC(=O)[C@H](CO)NC(=O)[C@H](CCCCN)NC(=O)[C@@H](NC(=O)[C@H](CS)NC(=O)[C@H](CCCCN)NC(=O)[C@H](CC(C)C)NC(=O)[C@H](CCCCN)NC(=O)[C@@H](N)CC(C)C)[C@@H](C)O)C(N)=O (H-LKLKCTKSGCKLKL-NH2)
- Activity [1]: Active
- MIC [2]: 16 µg/mL
- MIC [3]: 4 µg/mL (≈ 2.56 µM)
- Activity [4]: Dose-Dependent Effect
- inhibition [5]: Active
- MIC [6]: 64 µg/mL
- MIC [7]: 16 µg/mL (≈ 10.2 µM)
- MIC [8]: 8 µg/mL (≈ 5.12 µM)
- MIC [9]: 16 µg/mL (≈ 10.2 µM)
- Activity [10]: Active
- inhibition [11]: Dose-Dependent Effect
- MIC [12]: 128 µg/mL
- MIC [13]: 16 µg/mL
- viability at 3 h, 1 times of MIC [14]: > 90%
- inhibition [15]: Active
- MIC [16]: 32 µg/mL (≈ 20.5 µM)
- MIC [17]: 64 µg/mL (≈ 41 µM)
- MIC [18]: 32 µg/mL
- Activity [19]: Active
- MIC [20]: 32 µg/mL (≈ 20.5 µM)
- MIC [21]: 8 µg/mL (≈ 5.12 µM)
- MIC [22]: 64 µg/mL (≈ 41 µM)
- MIC [23]: 16 µg/mL (≈ 10.2 µM)
- MHC [24]: > 128 µg/mL
- MIC [25]: 2 µg/mL (≈ 1.28 µM)
- MIC [26]: 2 µg/mL (≈ 1.28 µM)
- MIC [27]: 4 µg/mL (≈ 2.56 µM)
- inhibition [28]: Active
- MIC [29]: 32 µg/mL (≈ 20.5 µM)
- MIC [30]: 64 µg/mL (≈ 41 µM)
- MIC [31]: 32 µg/mL
- Activity [32]: Dose-Dependent Effect
- MIC [33]: 16 µg/mL (≈ 10.2 µM)
- MIC [34]: 16 µg/mL (≈ 10.2 µM)
- MIC [35]: 1 µg/mL (≈ 0.64 µM)
- hemolysis at 1 h, 128 ug/ml [36]: < 10%
- Activity [37]: Tde
- MIC [38]: 2 µg/mL (≈ 1.28 µM)
- MIC [39]: 32 µg/mL (≈ 20.5 µM)
